{"source": "patent US20130267522A1", "about": "“METHODS FOR TREATING CANCER” (priority 2012, published 2013)", "tested_on": "naturally-occurring InvTCC", "experiment": "Study of folate-vinblastine conjugate in dogs with naturally-occurring InvTCC (tumor response)", "assay_type": "in vivo", "conditions": "IV once weekly, dose escalation from 0.2 mg/kg", "method": "A study was performed in dogs with naturally-occurring InvTCC to investigate antitumor activity and toxicity of folate targeted vinblastine treatment. The study of folate targeted vinblastine was performed in privately owned dogs with naturally-occurring InvTCC at the Purdue University Veterinary Teaching Hospital (PUVTH), Inclusion criteria for dogs in the study included: measurable, histologically-confirmed InvTCC; positive folate uptake detected by scintigraphy or FR expression observed in the tumor via IHC; expected survival of at least 6 weeks; and written dog owner consent. The study was open to dogs that had failed other therapies or who were not eligible for standard therapy.\nThe folate-vinblastine conjugate EC0905 was used. Briefly, EC0905 is a water-soluble folate conjugate of desacetylvinblastine monohydrazide (DA VLBH), which is constructed with the DA VLBH drug moiety attached to a hydrophilic folate-peptide compound via an endosome-cleavable disulfide bond (FIG. 1). A dose escalation study was performed. EC0905 was administered IV once weekly (starting dose 0.2 mg/kg), Dose escalation was performed within and between dogs with at least 3 dogs in each dose group, and at least 6 dogs treated at the maximum tolerated dose (MTD) (increased by 0.02 mg/kg in each dose group). Toxicity was assessed by CBCs, serum chemistry profiles, urinalyses, physical exams, and owner observations. Toxicity was classified by Veterinary Cooperative Oncology Group (VCOG) criteria.\nThe EC0905 dose was reduced by 10% if grade 2 toxicity was noted, and by 20% if grade 3 or higher toxicity occurred. Treatment was delayed by one week if the neutrophil count was<3000/mm^3 or platelet count <100,000/mm^3 the day treatment was due. The treatment protocol was scheduled to continue until 8 weeks beyond complete remission, or until cancer progression, or until unacceptable toxicity was noted.\nPhysical exam, medical history, and CBC were obtained weekly. Monthly evaluation included CBC, serum biochemical profile, urinalysis, urinary tract ultrasound, and mapping of the bladder masses by ultrasound. Urinary tumors were measured by a single ultrasound operator, and estimated tumor volume was recorded. Prior to treatment and at 8-week intervals, complete tumor staging (thoracic radiography, full abdominal ultrasonography) was performed, and tumor stage determined by the World Health Organization criteria for canine urinary bladder tumors. Tumor response was defined as: complete remission (no cancer detected), partial remission (PR, ≧50% decrease in tumor volume and no new tumor lesions), stable disease (SD, <50% change in tumor volume and no new tumor lesions), and progressive disease (PD, ≧50% increase in tumor volume or the development of new tumor lesions).", "data": [{"substance": "Pte-γGlu-(Glu(1-amino-1-deoxy-D-glucitol)-Glu)3-Glu(1-amino-1-deoxy-D-glucitol)-Cys(S-ethyl-3-(4-desacetylvinblastinyl)hydrazinecarboxylate) [EC0905]", "values": [{"measurement": "Partial remission (PR), percent of cases", "value": 50, "unit": "%"}, {"measurement": "Partial remission (PR, ≧50% decrease in tumor volume and no new tumor lesions), number of dogs", "value": 5, "unit": "dogs"}, {"measurement": "Stable disease (SD), percent of cases", "value": 50, "unit": "%"}, {"measurement": "Stable disease (SD, <50% change in tumor volume and no new tumor lesions), number of dogs", "value": 5, "unit": "dogs"}]}]}
